Results from article PMC11181322, “Copper(II) Complexes with Isomeric Morpholine-Substituted 2-Formylpyridine Thiosemicarbazone Hybrids as Potential Anticancer Drugs Inhibiting Both Ribonucleotide Reductase and Tubulin Polymerization: The Morpholine Position Matters” (Journal of Medicinal Chemistry, 2024).

Columns and labels:
[1] = Cyclic voltammetry of copper(II) complexes in DMSO/n-Bu4NPF6; type: physicochemical; details: for Epa^1: first anodic peak potential vs Fc+/Fc; for Epa^1 / Epa^2: 100 mV s^–1; for Epa^2: second anodic peak potential vs Fc+/Fc; for E1/2^red: vs Fc+/Fc, scan rate 100 mV s^–1
Protocol: The redox properties of the copper(II) complexes 3–6 were investigated by electrochemical, EPR, and UV–vis spectroelectrochemical measurements. […] While the half-wave reduction potentials E1/2^red for complexes 3–5 were almost the same (−0.82 V vs Fc^+/Fc), the E1/2^red for 6 is by 0.07 V more positive (−0.75 V vs Fc^+/Fc), as summarized in Table 4. The corresponding proligands are not redox active in the cathodic part (not shown).
Cyclic voltammetric experiments with 0.5 mM solutions of copper(II) complexes 3–6 in 0.1 M nBu4NPF6 (puriss quality from Fluka; dried under reduced pressure at 70 °C for 24 h before use) as supporting electrolyte in DMSO (SeccoSolv max. 0.025% H2O, Merck) were performed under Ar using a three-electrode arrangement with Pt wire as the counter electrode and Ag wire as the pseudoreference electrode. Glassy carbon or Pt wire served as the working electrode. Ferrocene purchased from Sigma-Aldrich was used as the internal potential standard without further purification. All potentials in voltammetric studies were quoted vs ferricenium/ferrocene (Fc^+/Fc) as the redox couple. A Heka PG310USB (Lambrecht, Germany) potentiostat with a PotMaster 2.73 software package served for the potential control in voltammetric studies. In situ ultraviolet–visible-near-infrared (UV–vis–NIR) spectroelectrochemical measurements were performed on a spectrometer (Avantes, Model AvaSpec-2048 × 14-USB2 in the spectroelectrochemical cell kit ([…]3) with the Pt-microstructured honeycomb working electrode, purchased from Pine Research Instrumentation. The cell was positioned in the CUV-UV Cuvette Holder (Ocean Optics) connected to the diode array UV–vis-NIR spectrometer by optical fibers. UV–vis-NIR spectra were processed using the AvaSoft 7.7 software package. Halogen and deuterium lamps were used as light sources (Avantes, Model AvaLight-DH-S-BAL).

MES-SA cells = experiment: Fluorescent protein-based cytotoxicity assay, MES-SA; type: cell-based, human; details: 120 h; ± SD; n = 3
From the text: (§1) The cytotoxic activity of proligands H2L^3–H2L^6 and their copper(II) complexes 3–6 was investigated in the MES-SA (human uterine sarcoma) and in its MDR counterpart (MES-SA/Dx5) cell lines by a fluorescent protein-based assay.[73]
(§2) The human uterine sarcoma cell lines MES-SA and the doxorubicin selected MES-SA-Dx5 were obtained from ATCC (MES-SA: No. CRL-1976, MES-SA/Dx5: No. CRL-1977) and were used for the intracellular ROS generation studies. For cytotoxicity, we used the fluorescent cell lines MES-SA mCherry and MES-SA/Dx5 eGFP, which were created by lentiviral transductions of the respective genes.[73] The phenotype of the resistant cells was maintained by 500 nM doxorubicin treatment a week before use and was verified using cytotoxicity assays. Cells were cultivated at 37 °C, 5% CO2 in Dulbecco’s modified Eagle's Medium (DMEM, Sigma-Aldrich), supplemented with 10% fetal bovine serum, 5 mM glutamine, and 50 unit/mL penicillin and streptomycin (Thermo Fisher).
(§3) MES-SA mCherry and MES-SA/Dx5 eGFP cell suspensions were seeded after trypsinization at 2500 cells/20 μL density on 384-well plates, containing 20 μL of completed medium. The next day, serial dilution of the compounds was prepared and added in an additional 20 μL, with or without 0.4 μM Tariquidar. Liquid handling steps were performed by a Hamilton StarLet robot. […] The mean and standard deviation of the pIC50 values were calculated and converted to IC50 values.

[2] = Redox reaction of the copper(II) complexes with GSH (UV–vis, anoxic); type: physicochemical; details: pH 7.4 (50 mM HEPES); ccomplex = 25 μM; cGSH = 1.25 mM; pure water; 25 °C
From the text: The direct reduction of the copper(II) complexes with the antioxidant GSH was investigated in anoxic aqueous solution at pH 7.4 by UV–vis spectrophotometry. At this pH, the complex [Cu(HL)]^+ is assumed to predominate according to the speciation studies (vide supra). The spectral changes were monitored in the wavelength range 250–550 nm by using a large excess of GSH (50 equiv). In this wavelength range, the spectral changes are due to the absorption of the metal complex and the ligand.
These changes imply that, after reduction in the presence of excess GSH, the generated copper(I) complex is not stable and liberates the free TSC ligand. […] The time-dependent absorbance changes are shown for all the studied systems in Figure 4b. The observed rate constants (kobs) were calculated (Table 2) as a semiquantitative description of the reaction kinetics. […] The obtained kobs values fall into the range for Triapine (0.10 min^–1), 2-pyridinecarboxaldehyde TSC (0.041 min^–1), and N-monomethylated N-methyl-Triapine (0.077 min^–1), measured under similar conditions.[67] To find out whether this slightly different kinetics for 6 and 3–5 is in accordance with their reduction potentials, cyclic voltammetry was performed.
The redox reaction of the copper(II) complexes with GSH and ascorbic acid was studied at 25.0 ± 0.1 °C on a Hewlett-Packard 8452A diode array spectrophotometer using a special, tightly closed tandem cuvette (Hellma Tandem Cell, 238-QS). The reactants were separated until the reaction was triggered. Both isolated pockets of the cuvette were completely deoxygenated by bubbling a stream of Ar for 10 min before mixing the reactants. Spectra were recorded before and then immediately after the mixing, and changes were followed until no further absorbance change was observed. One of the isolated pockets contained the reducing agent, and the other contained the complex. Their final concentrations were 1250 and 25 μM, respectively. The pH of all the solutions was adjusted to 7.40 by 50 mM HEPES buffer. The ionic strength of the solution was 0.1 M (KCl). The stock solutions of the reducing agents and the complexes were freshly prepared every day. During the calculations, the absorbance (A) – time (t) curves were fitted and analyzed at the λmax of the complex. (A0 – Afinal) × e^(−a×t) + Afinal was the fitting equation used, where the A0, Afinal, and a parameters were refined and accepted at the minimal value of the weighted sum of squared residuals (difference between the measured and calculated absorbance values) at the given wavelength. Then, observed rate constants (kobs) of the redox reaction were obtained from the data points of the simulated absorbance–time curves as the slope of the ln(A/A0) vs time plots.

MES-SA/Dx5 cells = experiment: Fluorescent protein-based cytotoxicity assay, MES-SA/Dx5; type: cell-based, human; details: for IC50: 120 h, ± SD, n = 3; for SR, selectivity ratio IC50 (MES-SA)/IC50 (MES-SA/Dx5): in the absence of TQ
From the text: as §1, §2, §3

purified tubulin = experiment: Inhibition of polymerization of purified tubulin; type: biochemical; details: read-out: inhibition of tubulin IC50 ± SD

| Compound | Epa^1 [1] | Epa^2 [1] | E1/2^red [1] | IC50 (MES-SA cells) [µM] | kobs, redox reaction with GSH [2] [min^–1] | IC50 (MES-SA/Dx5 cells) [µM] | SR, selectivity ratio IC50 (MES-SA)/IC50 (MES-SA/Dx5) (MES-SA/Dx5 cells) | IC50 (purified tubulin) [µM] |
| --- | --- | --- | --- | --- | --- | --- | --- | --- |
| Cc1cc(NC(=NN=Cc2ccc(CN3CCOCC3)cn2)[S][Cu][Cl])cc(C)c1O [complex 5, [Cu(HL^5)Cl]·2.5H2O] | +0.29 V | +0.69 V | –0.82 V | 31 ± 6.2 | 0.058 ± 0.010 | 8.1 ± 2 | 3.81 | 15 ± 0.4 |
| Cc1cc(NC(=NN=Cc2cccc(CN3CCOCC3)n2)[S][Cu][Cl])cc(C)c1O [complex 6, [Cu(HL^6)Cl]·H2O] | +0.26 V | +0.66 V | – | 0.29 | 0.165 ± 0.011 | 1.4 ± 0.2 | 0.21 | 5 ± 0.3 |
| Cc1cc(NC(=NN=Cc2cc(CN3CCOCC3)ccn2)[S][Cu][Cl])cc(C)c1O [complex 4, [Cu(HL^4)Cl]·1.5H2O] | +0.31 V | +0.77 V | –0.82 V | 19.2 ± 1.7 | 0.079 ± 0.019 | 5.8 ± 0.1 | 3.33 | 15 ± 1 |
